Laboratory results as given in PubChem BioAssay AID1259411 (Chemical Carcinogenesis Research Information System (CCRIS), 2018).
Active and inactive are the calls of the source. No rule for the calls is given here.

Test system: rodent carcinogenicity bioassays, tumor incidence
Test: CCRIS carcinogenicity studies
In short: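 Archive of carcinogenicity, mutagenicity, tumor promotion and tumor inhibition results drawn from journals, NCI reports and other sources, expert-reviewed; covers 1985-2011 and is no longer updated.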

CCCCCOC(=O)COc1cc(N2C(=O)C3=C(CCCC3)C2=O)c(F)cc1Cl
carcinogen call (Species: Mouse, Strain/Sex: CD-1 (ICR)/Female (51/Group), Route: Oral, Dose: 0, 37.8, 368.1, 850.1 mg/kg/day of 94.7% flumiclorac pentyl in diet for 78 wk, study duration 78 wk, Dose: 0, 37.8, 368.1, 850.1 mg/kg/day of 94.7% flumiclorac pentyl in diet for 78 wk, study duration 78 wk): inactive; negative | carcinogen call (Species: Mouse, Strain/Sex: CD-1 (ICR)/Male (51/Group), Route: Oral, Dose: 0, 31.5, 307.9, 731.4 mg/kg/day of 94.7% flumiclorac pentyl in diet for 78 wk, study duration 78 wk, Dose: 0, 31.5, 307.9, 731.4 mg/kg/day of 94.7% flumiclorac pentyl in diet for 78 wk, study duration 78 wk): inactive; negative | carcinogen call (Species: Rat, Strain/Sex: Crj:CD(SD)/Female (50/Group), Route: Oral, Dose: 0, 4.3, 43.6, 443.8, 919.4 mg/kg/day of 94.4% flumiclorac pentyl in diet for 24 mo, study duration 24 mo, Dose: 0, 4.3, 43.6, 443.8, 919.4 mg/kg/day of 94.4% flumiclorac pentyl in diet for 24 mo, study duration 24 mo): inactive; negative | carcinogen call (Species: Rat, Strain/Sex: Crj:CD(SD)/Male (50/Group), Route: Oral, Dose: 0, 3.5, 35.4, 360.4, 744.9 mg/kg/day of 94.4% flumiclorac pentyl in diet for 24 mo, study duration 24 mo, Dose: 0, 3.5, 35.4, 360.4, 744.9 mg/kg/day of 94.4% flumiclorac pentyl in diet for 24 mo, study duration 24 mo): inactive; negative

Cc1cccc(C)c1NC1=NCCCS1
carcinogen call (Species: RAT, Strain/Sex: F344/MALE, Route: ORAL, Dose: 0, 1,000 PPM IN FEED FOR 52 WK (STUDY DURATION: 52 WK), Tumor Site: Type of Lesion: THYROID: ADENOMA): active; positive

CCNC(=O)N(C)N=O
carcinogen call (Species: RAT, Strain/Sex: F344/FEMALE, Route: GAVAGE, Dose: 0, 20, 40 UMOL/WK IN CORN OIL/ETHYL ACETATE (2: 1) FOR 30 WK (LOW DOSE) OR 15 WK (HIGH DOSE) FOR TOTAL DOSES OF 0, 0.6;, Dose: 0, 20, 40 UMOL/WK IN CORN OIL/ETHYL ACETATE (2: 1) FOR 30 WK (LOW DOSE) OR 15 WK (HIGH DOSE) FOR TOTAL DOSES OF 0, 0.6;, Tumor Site: Type of Lesion: NERVOUS SYSTEM: TUMOR, THYMUS: TUMOR): active; positive | carcinogen call (Species: RAT, Strain/Sex: F344/FEMALE, Route: ORAL, Dose: 0, 20, 40 UMOL/WK IN DRINKING WATER FOR 30 WK FOR TOTAL DOSES OF 0, 0.6, 1.2 MMOL (STUDY DURATION: LIFETIME), Dose: 0, 20, 40 UMOL/WK IN DRINKING WATER FOR 30 WK FOR TOTAL DOSES OF 0, 0.6, 1.2 MMOL (STUDY DURATION: LIFETIME), Tumor Site: Type of Lesion: NERVOUS SYSTEM: TUMOR, KIDNEY: TUMOR): active; positive | carcinogen call (Species: RAT, Strain/Sex: F344/MALE, Route: GAVAGE, Dose: 0, 20, 40 UMOL/WK IN CORN OIL/ETHYL ACETATE (2: 1) FOR 30 WK FOR TOTAL DOSES OF 0, 0.6, 1.2 MMOL (STUDY DURATION: LIFETI, Dose: 0, 20, 40 UMOL/WK IN CORN OIL/ETHYL ACETATE (2: 1) FOR 30 WK FOR TOTAL DOSES OF 0, 0.6, 1.2 MMOL (STUDY DURATION: LIFETI, Tumor Site: Type of Lesion: NERVOUS SYSTEM: TUMOR, TESTIS: MESOTHELIOMA): active; positive | carcinogen call (Species: RAT, Strain/Sex: F344/MALE, Route: ORAL, Dose: 0, 20, 40 UMOL/WK IN DRINKING WATER FOR 30 WK FOR TOTAL DOSES OF 0, 0.6, 1.2 MMOL (STUDY DURATION: LIFETIME), Dose: 0, 20, 40 UMOL/WK IN DRINKING WATER FOR 30 WK FOR TOTAL DOSES OF 0, 0.6, 1.2 MMOL (STUDY DURATION: LIFETIME), Tumor Site: Type of Lesion: LUNG: TUMOR, NERVOUS SYSTEM: TUMOR): active; positive

CNNC
carcinogen call (Species: HAMSTER, Route: INTRAMUSCULAR, Tumor Site: Type of Lesion: STOMACH, LIVER, INTESTINES, Tumor Site: Type of Lesion: STOMACH, LIVER, INTESTINES): active; positive | carcinogen call (Species: HAMSTER, Route: ORAL, Tumor Site: Type of Lesion: BLOOD VESSELS, INTESTINES, LIVER, Tumor Site: Type of Lesion: BLOOD VESSELS, INTESTINES, LIVER): active; positive | carcinogen call (Species: MONKEY, Strain/Sex: CEBUS APELLA/MALE, Route: SUBCUTANEOUS, Dose: 0, 25 MG/KG BW 1/WK FOR 16 WK (STUDY DURATION: 20 MO)): inactive; negative | carcinogen call (Species: MOUSE, Route: ORAL, Tumor Site: Type of Lesion: LUNG, BLOOD VESSELS): active; positive | carcinogen call (Species: MOUSE, Route: SUBCUTANEOUS, Tumor Site: Type of Lesion: COLON, INTESTINES): active; positive | carcinogen call (Species: RAT, Route: ORAL, Tumor Site: Type of Lesion: INTESTINES, LIVER): active; positive | carcinogen call (Species: RAT, Route: SUBCUTANEOUS, Tumor Site: Type of Lesion: COLON, INTESTINES, LIVER, Tumor Site: Type of Lesion: COLON, INTESTINES, LIVER): active; positive | carcinogen call (Species: RAT, Strain/Sex: WISTAR/FEMALE, Route: SUBCUTANEOUS, Dose: 0, 200 MG/KG BW ONCE (STUDY DURATION: 1 YR), Tumor Site: Type of Lesion: KIDNEY: TUMOR): active; positive | carcinogen call (Species: RAT, Strain/Sex: WISTAR/MALE, Route: SUBCUTANEOUS, Dose: 30 MG/KG IN NACL-EDTA 1/WK FOR 10 OR 15 WK, Tumor Site: Type of Lesion: INTESTINES: CARCINOMA (INVASIVE, INCLUDING MUCIN AND NONMUCIN PRODUCING), CARCINOMA (NONINVASIVE)): active; positive

Nc1ccc(S(=O)(=O)c2ccc(N)cc2)cc1
carcinogen call (Species: MOUSE, Strain/Sex: B6C3F1/FEMALE, Route: ORAL, Dose: 0, 500, 1000 PPM IN DIET FOR 78 WK (STUDY DURATION: 105-108 WK), Dose: 0, 500, 1000 PPM IN DIET FOR 78 WK (STUDY DURATION: 105-108 WK)): inactive; negative | carcinogen call (Species: MOUSE, Strain/Sex: B6C3F1/MALE, Route: ORAL, Dose: 0, 500, 1000 PPM IN DIET FOR 78 WK (STUDY DURATION: 105-106 WK), Dose: 0, 500, 1000 PPM IN DIET FOR 78 WK (STUDY DURATION: 105-106 WK)): inactive; negative | carcinogen call (Species: RAT, Strain/Sex: BDIV/MALE,FEMALE, Route: GAVAGE, Dose: 100 MG/KG TO MOTHERS DURING PREGNANCY AND DURING WEANING, 52 G/KG (TOTAL DOSE) TO OFFSPRING AFTER WEANING, Tumor Site: Type of Lesion: THYROID GLAND: MALIGNANT C CELL TUMOR): active; positive | carcinogen call (Species: RAT, Strain/Sex: F344/FEMALE, Route: ORAL, Dose: 0, 600, 1200 PPM IN DIET FOR 78 WK (STUDY DURATION: 105-106 WK), Dose: 0, 600, 1200 PPM IN DIET FOR 78 WK (STUDY DURATION: 105-106 WK)): inactive; negative | carcinogen call (Species: RAT, Strain/Sex: F344/FEMALE, Route: ORAL, Dose: 0, 600, 1200 PPM IN DIET FOR 78 WK (STUDY DURATION: 105 WK), Dose: 0, 600, 1200 PPM IN DIET FOR 78 WK (STUDY DURATION: 105 WK)): inactive; negative | carcinogen call (Species: RAT, Strain/Sex: F344/MALE, Route: ORAL, Dose: 0, 600, 1200 PPM IN DIET FOR 78 WK (STUDY DURATION: 104-106 WK), Dose: 0, 600, 1200 PPM IN DIET FOR 78 WK (STUDY DURATION: 104-106 WK), Tumor Site: Type of Lesion: SPLEEN: FIBROMA OR FIBROSARCOMA OR SARCOMA (NOS), PERITONEAL CAVITY: FIBROSARCOMA, SARCOMA (NOS)): active; positive | carcinogen call (Species: RAT, Strain/Sex: F344/MALE, Route: ORAL, Dose: 0, 600, 1200 PPM IN DIET FOR 78 WK (STUDY DURATION: 105 WK), Dose: 0, 600, 1200 PPM IN DIET FOR 78 WK (STUDY DURATION: 105 WK), Tumor Site: Type of Lesion: SPLEEN OR PERITONEUM: SARCOMA): active; positive | carcinogen call (Species: RAT, Strain/Sex: WISTAR/MALE, Route: ORAL, Dose: 0.025% INCREASED TO 0.3% BY THIRD MO, Tumor Site: Type of Lesion: MULTIPLE SITES): active; positive

CC1CS(=O)(=O)CCN1/N=C/c1ccc([N+](=O)[O-])o1 (stereo not drawn)
carcinogen call (Species: MOUSE, Strain/Sex: SWISS/FEMALE, Route: INTRAPERITONEAL, Dose: 0, 8 UG/G BW 1/D FOR 30 DAYS (STUDY DURATION: LIFETIME), Tumor Site: Type of Lesion: LYMPHATIC SYSTEM: LYMPHOMA): active; positive | carcinogen call (Species: MOUSE, Strain/Sex: SWISS/FEMALE, Route: INTRAPERITONEAL, Dose: 0, 8 UG/G BW 1/D FOR 60 DAYS (STUDY DURATION: LIFETIME), Tumor Site: Type of Lesion: LYMPHATIC SYSTEM: LYMPHOMA): active; positive
